Laboratory results: ChEMBL document CHEMBL1149186, “Triacylglycerols based on 2-(N-tert-butoxycarbonylamino)oleic acid are potent inhibitors of pancreatic lipase” (J Med Chem, 2004)

How the values were obtained:
[1] = target: T1, Gastric triacylglycerol lipase (Homo sapiens) (UniProt P07098); assay: Inhibition constant (molar fraction of compound) on human gastric lipase (HGL) at a constant surface pressure of 17 […]; conditions: Stomach
T1 sequence (whole entry): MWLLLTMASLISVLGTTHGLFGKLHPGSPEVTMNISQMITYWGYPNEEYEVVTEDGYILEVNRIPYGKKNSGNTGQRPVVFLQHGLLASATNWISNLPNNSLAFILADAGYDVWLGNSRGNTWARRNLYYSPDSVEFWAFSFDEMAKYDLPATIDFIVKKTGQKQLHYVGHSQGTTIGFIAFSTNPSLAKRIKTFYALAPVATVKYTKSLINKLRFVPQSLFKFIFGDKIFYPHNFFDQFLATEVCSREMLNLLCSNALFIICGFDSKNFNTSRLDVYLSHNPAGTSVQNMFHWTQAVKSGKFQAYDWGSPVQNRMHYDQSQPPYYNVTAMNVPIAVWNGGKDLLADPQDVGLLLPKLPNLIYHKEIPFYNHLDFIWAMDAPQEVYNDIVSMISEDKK

[2] = target: T1, Gastric triacylglycerol lipase (Homo sapiens); assay: Inhibition constant (molar fraction of compound) on human gastric lipase (HGL) at a constant surface pressure of 27 […]; conditions: Stomach
[3] = target: T2, Pancreatic triacylglycerol lipase (Homo sapiens) (UniProt P16233); assay: Inhibition constant (molar fraction of compound) on human pancreatic lipase (HPL) at a constant surface pressure of 14 […]
T2 sequence (whole entry): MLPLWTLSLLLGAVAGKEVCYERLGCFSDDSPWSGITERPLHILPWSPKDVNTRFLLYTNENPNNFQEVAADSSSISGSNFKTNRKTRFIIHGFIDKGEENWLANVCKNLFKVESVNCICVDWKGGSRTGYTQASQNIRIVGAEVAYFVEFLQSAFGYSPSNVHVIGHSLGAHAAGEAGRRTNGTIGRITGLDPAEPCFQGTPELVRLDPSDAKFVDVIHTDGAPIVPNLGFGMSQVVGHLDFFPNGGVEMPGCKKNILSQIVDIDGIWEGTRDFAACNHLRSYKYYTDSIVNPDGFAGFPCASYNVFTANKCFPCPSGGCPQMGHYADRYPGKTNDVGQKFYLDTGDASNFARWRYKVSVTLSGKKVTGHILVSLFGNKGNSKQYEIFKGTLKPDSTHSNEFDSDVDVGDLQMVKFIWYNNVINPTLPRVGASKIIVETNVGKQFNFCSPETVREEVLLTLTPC

[4] = target: T2, Pancreatic triacylglycerol lipase (Homo sapiens); assay: Inhibition constant (molar fraction of compound) on human pancreatic lipase (HPL) at a constant surface pressure of 25 […]

Row | Compound | Alpha 50 (molar fraction) [1] | Alpha 50 (molar fraction) [2] | Alpha 50 (molar fraction) [3] | Alpha 50 (molar fraction) [4]
1 | CCCCCCCC/C=C\CCCCCC[C@H](NC(=O)OC(C)(C)C)C(=O)OCC(COC(=O)[C@H](CCCCCC/C=C\CCCCCCCC)NC(=O)OC(C)(C)C)OC(=O)[C@H](CCCCCC/C=C\CCCCCCCC)NC(=O)OC(C)(C)C | 0.15 | 0.057 | 0.009 | 0.003
2 | CCCCCCCC/C=C\CCCCCC[C@H](NC(=O)OC(C)(C)C)C(=O)OCC(C)(COC(=O)[C@H](CCCCCC/C=C\CCCCCCCC)NC(=O)OC(C)(C)C)OC(=O)[C@H](CCCCCC/C=C\CCCCCCCC)NC(=O)OC(C)(C)C | – | 0.104 | – | 0.002
